The text below walks through data of patent publication US11891425B2, “Thioamide-modified peptides and uses thereof” (THE TRUSTEES OF THE UNIVERSITY OF PENNSYLVANIA, priority 2014, dated 2024).

One data set in a line: FIG. 17.
Details: not given
Here is the method: Table printed on a drawing sheet, FIG. 17
The patent's description of the figure: FIG. 17 illustrates systematic scanning of the effects of thioamide modification position in a peptide. The thioamide modifications were conducted at different positions of the peptide chain. The resulting peptides were mixed with either papain or trypsin enzymes to measure the changes of fluorescence intensity. The “+” sign after the peptide sequence means the presence of the corresponding enzyme. The “−” sign after the peptide sequence means the lack of the corresponding enzyme.
First reader's note: Raised S after a residue marks the thioamide position; the half-lives are proteolytic half-lives in the presence of papain or trypsin.
For the substance μLL^SKAAAμ [compound 54], the “Papain t1/2” value came to 180 min and the “Trypsin t1/2” value was determined as 2 min.

Take μLLKA^SAAμ [compound 56]: the “Papain t1/2” value is more than 30 min and the “Trypsin t1/2” value is 3 min.

As to μLLKAAA^Sμ [compound 58], the “Papain t1/2” value was determined as 5 min and the “Trypsin t1/2” value amounted to 2 min.

Take μLLR^SAAAμ [compound 55]: the “Papain t1/2” value was 12 min and the “Trypsin t1/2” value is reported as more than 200 min.

Regarding μL^SLKAAAμ [compound 53], the “Papain t1/2” value was 4 min and the “Trypsin t1/2” value was 4 min.

For the substance μLLKAAAμ [compound 52], the “Papain t1/2” value is recorded as 5 min and the “Trypsin t1/2” value is 1 min.

Consider μLLKAA^SAμ [compound 57], for which the “Papain t1/2” value is on record as 4 min and the “Trypsin t1/2” value came out at 2 min.

Assay in another data set: not given
Particulars: in vivo; cited from earlier work.
As to “GIP: glucose-dependent insulinotropic factor, SEQ ID NO:5”, the “half-life (in vivo / circulating)” value is “less than 15 minutes”.

The data set is the same for the next values; noted with them: native peptide, DPP-4 substrate; cited from earlier work.
As to “GHRH: growth-hormone-releasing hormone, SEQ ID NO:43”, the “half-life (in vivo / circulating)” value is 19 min.

“ENT: enterostatin, SEQ ID NO:47 (APGPR; listed as Homo sapiens)”: the “half-life (in vivo / circulating)” value was 5 min.

With “NPY: neuropeptide Y, SEQ ID NO:23, 36-amino acid peptide”, the “half-life (in vivo / circulating)” value is 15 to 20 min.
